# In US8957078B2, “Compounds useful as inhibitors of ATR kinase” (Vertex Pharmaceuticals Incorporated, priority 2013, dated 2015):
# Tests used:
# [1] = tested on: HCT116 colorectal cancer cells; test: Cisplatin Sensitization Assay (96 h cell viability MTS); assay type: cell-based; settings: concentration of compound required to reduce the IC50 of Cisplatin alone by at least 3-fold; HCT116, 96 h MTS
# Summary of the method: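 HCT116 cells treated 96 h at 37 °C with compound and cisplatin together as a full matrix of 2-fold dilutions, each from 10 μM final top concentration. Viability by MTS, absorbance 490 nm. Value reported: compound concentration lowering cisplatin IC50 at least 3-fold.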
# [2] = target: T1, ATR kinase, in the presence of partner proteins ATRIP, CLK2 and TopBP1 (Homo sapiens, UniProt Q13535); test: ATR-Complex Inhibition Assay (radioactive-phosphate incorporation); assay type: biochemical; settings: Ki(app); 4 nM full-length ATR, 40 nM ATRIP, 40 nM CLK2, 600 nM TopBP1(A891-S1105), 10 μM ATP, 25° C.
# T1 construct: in the presence of 4 nM full-length ATR, 40 nM full-length ATRIP
# T1 sequence (Q13535 whole entry): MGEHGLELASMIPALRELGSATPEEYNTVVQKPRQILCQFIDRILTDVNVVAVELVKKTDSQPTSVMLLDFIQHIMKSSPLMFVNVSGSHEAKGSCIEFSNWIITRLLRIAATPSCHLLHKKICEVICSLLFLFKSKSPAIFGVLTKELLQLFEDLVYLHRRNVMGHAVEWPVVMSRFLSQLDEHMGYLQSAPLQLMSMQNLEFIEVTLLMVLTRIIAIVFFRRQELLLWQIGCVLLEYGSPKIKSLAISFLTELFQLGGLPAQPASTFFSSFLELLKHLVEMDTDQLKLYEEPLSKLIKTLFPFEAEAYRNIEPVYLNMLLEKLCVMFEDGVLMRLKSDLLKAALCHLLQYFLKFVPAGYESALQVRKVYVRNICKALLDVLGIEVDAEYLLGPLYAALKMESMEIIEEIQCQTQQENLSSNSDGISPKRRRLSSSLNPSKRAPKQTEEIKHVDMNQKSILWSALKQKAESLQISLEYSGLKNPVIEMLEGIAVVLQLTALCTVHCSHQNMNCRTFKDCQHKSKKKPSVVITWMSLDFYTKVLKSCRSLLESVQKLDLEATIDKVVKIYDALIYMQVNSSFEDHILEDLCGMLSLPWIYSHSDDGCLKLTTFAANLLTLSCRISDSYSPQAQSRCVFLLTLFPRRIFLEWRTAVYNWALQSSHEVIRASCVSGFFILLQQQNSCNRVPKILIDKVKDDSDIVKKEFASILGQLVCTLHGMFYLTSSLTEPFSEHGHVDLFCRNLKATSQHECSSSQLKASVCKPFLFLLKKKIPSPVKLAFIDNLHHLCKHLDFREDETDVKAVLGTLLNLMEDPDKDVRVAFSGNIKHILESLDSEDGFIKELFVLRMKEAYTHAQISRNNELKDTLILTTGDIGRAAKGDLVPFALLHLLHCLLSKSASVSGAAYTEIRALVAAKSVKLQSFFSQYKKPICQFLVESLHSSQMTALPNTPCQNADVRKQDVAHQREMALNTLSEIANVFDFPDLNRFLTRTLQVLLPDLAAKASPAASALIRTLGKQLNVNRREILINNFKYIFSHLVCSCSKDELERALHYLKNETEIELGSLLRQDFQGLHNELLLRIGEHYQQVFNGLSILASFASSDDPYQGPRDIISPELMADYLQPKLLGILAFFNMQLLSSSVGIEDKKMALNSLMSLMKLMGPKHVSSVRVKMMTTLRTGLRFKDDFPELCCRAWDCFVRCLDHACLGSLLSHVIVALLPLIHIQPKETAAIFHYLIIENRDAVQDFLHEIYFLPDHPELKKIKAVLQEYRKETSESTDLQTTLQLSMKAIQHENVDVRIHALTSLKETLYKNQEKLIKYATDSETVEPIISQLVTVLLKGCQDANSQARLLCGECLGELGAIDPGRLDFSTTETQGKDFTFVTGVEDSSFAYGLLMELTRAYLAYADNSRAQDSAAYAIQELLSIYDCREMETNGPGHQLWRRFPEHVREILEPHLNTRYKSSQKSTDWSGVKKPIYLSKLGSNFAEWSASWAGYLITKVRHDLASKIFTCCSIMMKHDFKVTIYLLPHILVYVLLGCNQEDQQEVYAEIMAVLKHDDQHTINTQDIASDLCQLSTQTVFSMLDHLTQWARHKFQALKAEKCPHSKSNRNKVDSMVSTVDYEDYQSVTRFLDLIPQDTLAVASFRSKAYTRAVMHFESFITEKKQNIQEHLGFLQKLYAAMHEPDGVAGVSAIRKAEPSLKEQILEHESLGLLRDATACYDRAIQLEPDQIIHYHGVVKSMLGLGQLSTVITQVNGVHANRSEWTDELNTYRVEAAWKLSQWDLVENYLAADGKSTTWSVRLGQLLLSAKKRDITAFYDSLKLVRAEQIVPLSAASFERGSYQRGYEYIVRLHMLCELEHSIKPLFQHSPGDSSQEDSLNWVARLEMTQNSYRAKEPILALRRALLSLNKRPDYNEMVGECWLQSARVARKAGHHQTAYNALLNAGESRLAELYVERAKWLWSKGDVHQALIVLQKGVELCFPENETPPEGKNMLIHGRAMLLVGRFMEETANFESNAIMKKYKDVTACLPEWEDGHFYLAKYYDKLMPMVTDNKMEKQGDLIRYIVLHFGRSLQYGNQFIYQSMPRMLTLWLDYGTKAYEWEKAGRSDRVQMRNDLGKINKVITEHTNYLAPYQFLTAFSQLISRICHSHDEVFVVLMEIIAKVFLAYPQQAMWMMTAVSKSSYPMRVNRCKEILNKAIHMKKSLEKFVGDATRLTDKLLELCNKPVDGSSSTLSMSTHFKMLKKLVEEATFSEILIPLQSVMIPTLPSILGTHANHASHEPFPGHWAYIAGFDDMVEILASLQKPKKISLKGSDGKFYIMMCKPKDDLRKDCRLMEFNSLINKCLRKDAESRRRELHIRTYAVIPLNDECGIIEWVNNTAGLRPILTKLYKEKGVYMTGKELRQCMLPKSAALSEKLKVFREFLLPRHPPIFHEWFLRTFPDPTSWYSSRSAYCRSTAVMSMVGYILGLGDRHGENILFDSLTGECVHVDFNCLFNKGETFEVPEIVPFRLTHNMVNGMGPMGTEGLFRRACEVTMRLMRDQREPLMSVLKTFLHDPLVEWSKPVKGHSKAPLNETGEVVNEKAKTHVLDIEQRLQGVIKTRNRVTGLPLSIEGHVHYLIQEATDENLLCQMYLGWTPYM
# T1 sequence (Q8WXE1 whole entry partner): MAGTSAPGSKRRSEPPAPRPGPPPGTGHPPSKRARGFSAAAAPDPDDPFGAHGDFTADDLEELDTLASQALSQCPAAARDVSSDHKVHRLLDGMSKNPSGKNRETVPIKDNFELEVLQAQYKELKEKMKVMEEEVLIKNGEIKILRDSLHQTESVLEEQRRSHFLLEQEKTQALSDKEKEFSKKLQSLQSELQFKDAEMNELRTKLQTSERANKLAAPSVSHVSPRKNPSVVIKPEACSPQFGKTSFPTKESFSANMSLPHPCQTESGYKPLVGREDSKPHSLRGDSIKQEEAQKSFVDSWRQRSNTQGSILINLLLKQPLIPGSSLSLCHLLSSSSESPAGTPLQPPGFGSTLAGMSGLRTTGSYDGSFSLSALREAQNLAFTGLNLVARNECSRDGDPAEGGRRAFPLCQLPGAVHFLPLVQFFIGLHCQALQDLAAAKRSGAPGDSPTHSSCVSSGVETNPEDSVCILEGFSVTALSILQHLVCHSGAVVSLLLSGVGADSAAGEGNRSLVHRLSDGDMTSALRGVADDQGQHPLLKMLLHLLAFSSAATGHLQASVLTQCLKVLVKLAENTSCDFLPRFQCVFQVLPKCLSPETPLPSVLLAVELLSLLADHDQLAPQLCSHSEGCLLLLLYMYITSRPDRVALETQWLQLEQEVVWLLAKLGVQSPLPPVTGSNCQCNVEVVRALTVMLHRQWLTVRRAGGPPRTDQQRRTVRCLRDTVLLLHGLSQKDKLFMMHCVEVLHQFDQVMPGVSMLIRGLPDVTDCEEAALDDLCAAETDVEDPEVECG
# Procedure: Compounds were screened for their ability to inhibit ATR kinase, in the presence of partner proteins ATRIP, CLK2 and TopBP1, using a radioactive-phosphate incorporation assay. Assays were carried out in a mixture of 50 mM Tris/HCl (pH 7.5), 10 mM MgCl2 and 1 mM DTT. Final substrate concentrations were 10 μM [g-33P]ATP (3.5 μCi 33P ATP/nmol ATP, Perkin Elmer, Massachusetts, USA) and 800 μM target peptide (ASELPASQPQPFSAKKK (SEQ. ID NO: 1)), Isca Biochemicals, Cambridgeshire, UK).
# Assays were carried out at 25° C. in the presence of 4 nM full-length ATR, 40 nM full-length ATRIP, 40 nM full-length CLK2 and 600 nM TopBP1(A891-S1105). An enzyme stock buffer solution was prepared containing all of the reagents listed above, with the exception of target peptide, ATP and the test compound of interest. This enzyme stock was pre-incubated for 30 minutes at 25° C. […]
# After removing mean background values for all of the data points, Ki(app) data were calculated from non-linear regression analysis of the initial rate data using the Prism software package (GraphPad Prism version 6.0c for Macintosh, GraphPad Software Inc., San Diego, USA).
# [3] = target: T2, ATR kinase (full-length ATR) (Homo sapiens, UniProt Q13535); test: ATR Inhibition Assay (radioactive-phosphate incorporation); assay type: biochemical; settings: Ki(app); 5 nM full-length ATR, 10 μM ATP, 800 μM target peptide, 25° C.
# T2 construct: in the presence of 5 nM full-length ATR
# T2 sequence (Q13535 whole entry): as the sequence (Q13535 whole entry) above
Ki [2] [nM],Ki [3] [nM],SMILES,Cisplatin Sensitization Assay [1]
< 10,10 to 1000,"CN1CCN(C(=O)c2ccc(-c3cnncc3NC(=O)c3c(N)nn4cc(F)cnc34)cc2)CC1 [I-B-13, 2-amino-6-fluoro-N-(5-(4-(4-methylpiperazine-1-carbonyl)phenyl)pyridazin-4-yl)pyrazolo[1,5-a]pyrimidine-3-carboxamide]",++ (Compounds with a Cisplatin sensitization value >0.02 μM but <0.2 μM are marked with “++.”)
< 10,10 to 1000,"Nc1nn2cc(F)cnc2c1C(=O)Nc1ccncc1N1CCN(C2COC2)CC1 [I-C-1, 2-amino-6-fluoro-N-(3-(4-(oxetan-3-yl)piperazin-1-yl)pyridin-4-yl)pyrazolo[1,5-a]pyrimidine-3-carboxamide]",++ (Compounds with a Cisplatin sensitization value >0.02 μM but <0.2 μM are marked with “++.”)
